Source: patent US7897150B1, “Canine lymphoma cell line and uses thereof” (The Ohio State University, priority 2007, dated 2011)
Where a name gives a salt, the structure may show the parent alone.

Test system: OSW cell line
Assay: In vitro chemosensitivity (WST-1 cytotoxicity and proliferation assay)
Type: cell-based
Conditions: Canis lupus familiaris; OSW canine T-cell lymphoma cell line, 72 h treatment, WST-1 assay; read-out: inhibitory concentration 50% (IC50)
Protocol: 1-2×10^4 cells were seeded in 96-well plates in quadruplicates to a final volume of 200 μL/well. Cells were treated with doxorubicin hydrochloride (Ben Venue Laboratories-Novation, Bedford, Ohio, USA) or vincristine sulfate (Mayne Pharma Pty Ltd., Mulgrave VIC, Australia) at varying concentrations of drug or vehicle control for 72 h. Cell proliferation and viability was determined using the WST-1 assay, which quantifies the reduction of the tetrazolium salt WST-1 by mitochondria in viable cells. Cell number was determined from absorbance values of known numbers of cells. At various time intervals, 20 μl of WST-1 reagent (Roche, Indianapolis, Ind., USA) was added to each well and incubated for 2 to 4 h at 37° C. The absorbance of the reaction product, after background subtraction, was measured at 450 nm on a Spectra Max M2 plate reader (Molecular Devices, Sunnyvale, Calif., USA). Each experiment was repeated at least three times.
The in vitro chemosensitivity of the OSW cell line to doxorubicin and vincristine was determined.

## COc1cccc2c1C(=O)c1c(O)c3c(c(O)c1C2=O)C[C@@](O)(C(=O)CO)C[C@@H]3O[C@H]1C[C@H](N)[C@H](O)[C@H](C)O1 [Doxorubicin, doxorubicin hydrochloride]
  IC50: 500 nM

## CC[C@]1(O)C[C@H]2CN(CCc3c([nH]c4ccccc34)[C@@](C(=O)OC)(c3cc4c(cc3OC)N(C=O)[C@H]3[C@@](O)(C(=O)OC)[C@H](OC(C)=O)[C@]5(CC)C=CCN6CC[C@]43[C@@H]65)C2)C1 [vincristine, vincristine sulfate]
  IC50: 400 nM
